Test results taken from ChEMBL document CHEMBL4673201, “Potent and Selective Inhibitors of MTH1 Probe Its Role in Cancer Cell Survival” (J Med Chem, 2016).
Converted amounts (≈) assume the structure as drawn.

assay: Intrinsic clearance in human liver microsome; format: ADME; settings: liver microsomes, read-out: CLH

Row | microsomal CLint | Compound
1 | 13 µL/min/mg | CNC(=O)c1cnc2cc(OC)c(OC)cc2c1Oc1ccccc1
2 | 8 µL/min/mg | CNC(=O)c1cnc2cc(OC)c(OC)cc2c1Nc1ccccc1CCS(C)(=O)=O
3 | 23 µL/min/mg | COc1cc2ncc(C(N)=O)c(Nc3ccc(Cl)cc3F)c2cc1OC
4 | > 300 µL/min/mg | CNc1nc2nc3c1[nH]c(=O)n3Cc1cccc(c1)OCC(=O)N(C)CCO2
5 | 13 µL/min/mg | COc1cc2ncc(C(=O)N(C)C)c(Nc3ccc(Cl)cc3F)c2cc1OC
6 | 6 µL/min/mg | CNC(=O)c1cnc2ccccc2c1Nc1ccc(Cl)cc1F
7 | 215 µL/min/mg | CNc1nc(-c2ccccc2)c2ccccc2n1
8 | 10 µL/min/mg | CNC(=O)c1cnccc1Nc1ccc(Cl)cc1F
9 | > 300 µL/min/mg | CNc1nc2nc3c1[nH]c(=O)n3Cc1cccc(c1)OCC(=O)NCCO2
10 | 120 µL/min/mg | CN(C)c1nc(-c2ccccc2)c2ccccc2n1
11 | 8 µL/min/mg | CNC(=O)c1cnc2cc(OC)c(OCN3CCN(C)CC3)cc2c1Nc1ccccc1

Row | Compound | microsomal CLint
12 | CN(C)CCc1ccc(-c2nc(N)nc3ccccc23)cc1 | 5 µL/min/mg

assay: Apparent permeability of compound in human Caco2 cells; format: ADME, cell-based; settings: Caco-2

Row | Compound | Papp
13 | COc1cc2ncc(C(=O)N(C)C)c(Nc3ccc(Cl)cc3F)c2cc1OC | 330 nm/s
14 | CN(C)CCc1ccc(-c2nc(N)nc3ccccc23)cc1 | 340 nm/s

assay: Plasma protein binding in human assessed as fraction unbound; format: ADME, cell-free; settings: not given

Row | fraction unbound | Fu | Compound
15 | 0.147 | – | CNC(=O)c1cnc2cc(OC)c(OC)cc2c1Oc1ccccc1
16 | 0.22 | – | CNC(=O)c1cnc2cc(OC)c(OC)cc2c1Nc1ccccc1CCS(C)(=O)=O
17 | 0.034 | – | COc1cc2ncc(C(N)=O)c(Nc3ccc(Cl)cc3F)c2cc1OC
18 | – | Nd(Unstable) | CNc1nc2nc3c1[nH]c(=O)n3Cc1cccc(c1)OCC(=O)N(C)CCO2
19 | 0.066 | – | COc1cc2ncc(C(=O)N(C)C)c(Nc3ccc(Cl)cc3F)c2cc1OC
20 | 0.062 | – | CNC(=O)c1cnc2ccccc2c1Nc1ccc(Cl)cc1F
21 | 0.009 | – | CNc1nc(-c2ccccc2)c2ccccc2n1
22 | 0.089 | – | CNC(=O)c1cnccc1Nc1ccc(Cl)cc1F
23 | – | Nd(Unstable) | CNc1nc2nc3c1[nH]c(=O)n3Cc1cccc(c1)OCC(=O)NCCO2
24 | 0.001 | – | CN(C)c1nc(-c2ccccc2)c2ccccc2n1
25 | 0.51 | – | CNC(=O)c1cnc2cc(OC)c(OCN3CCN(C)CC3)cc2c1Nc1ccccc1

Row | Compound | fraction unbound | Fu
26 | CN(C)CCc1ccc(-c2nc(N)nc3ccccc23)cc1 | 0.041 | –

assay: physchem; settings: buffer, pH 7.4

Row | logD | Compound
27 | 2.1 | CNC(=O)c1cnc2cc(OC)c(OC)cc2c1Oc1ccccc1
28 | 1.7 | CNC(=O)c1cnc2cc(OC)c(OC)cc2c1Nc1ccccc1CCS(C)(=O)=O
29 | 3.5 | COc1cc2ncc(C(N)=O)c(Nc3ccc(Cl)cc3F)c2cc1OC
30 | 3 | CNc1nc2nc3c1[nH]c(=O)n3Cc1cccc(c1)OCC(=O)N(C)CCO2
31 | 2.5 | COc1cc2ncc(C(=O)N(C)C)c(Nc3ccc(Cl)cc3F)c2cc1OC
32 | 3.3 | CNC(=O)c1cnc2ccccc2c1Nc1ccc(Cl)cc1F
33 | 3.6 | CNc1nc(-c2ccccc2)c2ccccc2n1
34 | 3.1 | CNC(=O)c1cnccc1Nc1ccc(Cl)cc1F
35 | 1.8 | CNc1nc2nc3c1[nH]c(=O)n3Cc1cccc(c1)OCC(=O)NCCO2
36 | 4 | CN(C)c1nc(-c2ccccc2)c2ccccc2n1
37 | 1.6 | CNC(=O)c1cnc2cc(OC)c(OCN3CCN(C)CC3)cc2c1Nc1ccccc1

Row | Compound | logD
38 | CN(C)CCc1ccc(-c2nc(N)nc3ccccc23)cc1 | 2

assay: Aqueous solubility of compound at pH 7.4; format: physicochemical; settings: buffer

Row | solubility | Compound
39 | 35 µM (≈ 11.8 µg/mL) | CNC(=O)c1cnc2cc(OC)c(OC)cc2c1Oc1ccccc1
40 | 30 µM (≈ 13.3 µg/mL) | CNC(=O)c1cnc2cc(OC)c(OC)cc2c1Nc1ccccc1CCS(C)(=O)=O
41 | 2 µM (≈ 0.752 µg/mL) | COc1cc2ncc(C(N)=O)c(Nc3ccc(Cl)cc3F)c2cc1OC
42 | 6 µM (≈ 2.42 µg/mL) | COc1cc2ncc(C(=O)N(C)C)c(Nc3ccc(Cl)cc3F)c2cc1OC
43 | 8 µM (≈ 2.64 µg/mL) | CNC(=O)c1cnc2ccccc2c1Nc1ccc(Cl)cc1F
44 | 7 µM (≈ 1.65 µg/mL) | CNc1nc(-c2ccccc2)c2ccccc2n1
45 | 39 µM (≈ 10.9 µg/mL) | CNC(=O)c1cnccc1Nc1ccc(Cl)cc1F
46 | 1 µM (≈ 0.249 µg/mL) | CN(C)c1nc(-c2ccccc2)c2ccccc2n1
47 | > 1000 µM | CNC(=O)c1cnc2cc(OC)c(OCN3CCN(C)CC3)cc2c1Nc1ccccc1

Row | Compound | solubility
48 | CN(C)CCc1ccc(-c2nc(N)nc3ccccc23)cc1 | 118 µM (≈ 34.5 µg/mL)
